Assay results as given in ChEMBL document CHEMBL1154410, “In vivo efficacy of a novel oxazolidinone compound in two mouse models of infection” (Antimicrob Agents Chemother, 2007).
In brackets after ≈: the same amount, converted by molar mass. Activity calls are given as the source filed them. No cut-off for these calls is given here.

What was measured:
[1] = system: Staphylococcus aureus; assay: (§1) Antibacterial activity against linezolid-resistant methicillin-resistant Staphylococcus aureus infected in po dosed C3H mouse localized infection model assessed as reduction of number of CFU per gram of thigh administered 2 hrs postinfection thrice daily for 1 day and once daily for 5 days measured after 48 hrs relative to control; assay type: functional; details: Thigh muscle
[2] = system: Staphylococcus aureus; assay: Antibacterial activity against methicillin-susceptible Staphylococcus aureus Smith infected in C3H mouse assessed as reduction in log number of CFU at 3.12 mg/kg/day, iv administered within 15 mins of infection measured after 48 hrs by organ burden assay relative to control; assay type: functional
[3] = system: Enterococcus; assay: Antibacterial activity against vancomycin-resistant Enterococcus spp.; assay type: functional, organism-based
[4] = system: Staphylococcus aureus; assay: (§2) Antibacterial activity against methicillin-resistant Staphylococcus aureus COL infected in po dosed DBA/2 mouse localized infection model assessed as log reduction in CFU per gram of thigh at 10 mg/kg, po administered 2 hrs postinfection thrice daily for 1 day and once daily for 5 days measured after 48 hrs by organ burden assay relative to control; assay type: functional
[5] = system: Staphylococcus aureus; assay: Antibacterial activity against methicillin-susceptible Staphylococcus aureus Smith by dilution susceptibility test; assay type: functional
[6] = system: Staphylococcus aureus; assay: Antibacterial activity against methicillin-susceptible Staphylococcus aureus Smith infected in C3H mouse assessed as reduction in log number of CFU at 12.5 mg/kg/day, po administered within 15 mins of infection measured after 48 hrs by organ burden assay relative to control; assay type: functional
[7] = system: Staphylococcus aureus; assay: Antibacterial activity against methicillin-susceptible Staphylococcus aureus Smith infected in C3H mouse assessed as reduction in log number of CFU at 12.5 mg/kg/day, iv administered within 15 mins of infection measured after 48 hrs by organ burden assay relative to control; assay type: functional
[8] = system: Staphylococcus aureus; assay: Antibacterial activity against methicillin-susceptible Staphylococcus aureus Smith infected in C3H mouse assessed as eradication at 25 mg/kg/day, po administered within 15 mins of infection assessed per gram of kidney measured after 48 hrs by organ burden assay relative to control; assay type: functional
[9] = system: Staphylococcus aureus; assay: Antibacterial activity against methicillin-susceptible Staphylococcus aureus Smith infected in C3H mouse assessed as reduction in log number of CFU at 25 mg/kg/day, po administered within 15 mins of infection measured after 48 hrs by organ burden assay relative to control; assay type: functional
[10] = system: Staphylococcus aureus; assay: as §2, with “mg/kg, iv” for “mg/kg, po”, “for 1 day” for “for 5 days”; assay type: functional
[11] = system: Staphylococcus aureus; assay: as §1, with “against” for “against linezolid-resistant”, “aureus COL” for “aureus”, “in iv” for “in po”, “dosed DBA/2” for “dosed C3H”, “for 1 day” for “for 5 days”; assay type: functional
[12] = system: Staphylococcus aureus; assay: Antibacterial activity against 10^9 CFU linezolid-resistant methicillin-resistant Staphylococcus aureus by dilution susceptibility test; assay type: functional
[13] = system: Staphylococcus aureus; assay: Antibacterial activity against methicillin-susceptible Staphylococcus aureus Smith infected in C3H mouse assessed as reduction in log number of CFU at 6.25 mg/kg/day, po administered within 15 mins of infection measured after 48 hrs by organ burden assay relative to control; assay type: functional
[14] = system: Haemophilus influenzae; assay: Antibacterial activity against Haemophilus influenzae by dilution susceptibility test; assay type: functional
[15] = system: Staphylococcus aureus; assay: as §1, with “against” for “against linezolid-resistant”, “aureus COL” for “aureus”, “DBA/2” for “C3H”; assay type: functional
[16] = system: Staphylococcus aureus; assay: Antibacterial activity against methicillin-susceptible Staphylococcus aureus Smith infected in iv dosed C3H mouse localized infection model assessed as reduction of number of CFU per gram of kidney administered 15 mins after infection measured after 48 hrs relative to control; assay type: functional
[17] = system: Staphylococcus aureus; assay: as §2, with “at 5” for “at 10”, “mg/kg, iv” for “mg/kg, po”, “for 1 day” for “for 5 days”; assay type: functional
[18] = system: Staphylococcus aureus; assay: Antibacterial activity against methicillin-susceptible Staphylococcus aureus Smith infected in po dosed C3H mouse localized infection model assessed as reduction of number of CFU per gram of kidney administered 15 mins after infection measured after 48 hrs relative to control; assay type: functional
[19] = system: Streptococcus pneumoniae; assay: Antibacterial activity against penicillin-resistant Streptococcus pneumoniae; assay type: functional, organism-based
[20] = system: Staphylococcus aureus; assay: Antibacterial activity against methicillin-susceptible Staphylococcus aureus Smith infected in C3H mouse assessed as eradication at 25 mg/kg/day, iv administered within 15 mins of infection assessed per gram of kidney measured after 48 hrs by organ burden assay relative to control; assay type: functional
[21] = system: Moraxella catarrhalis; assay: Antibacterial activity against Moraxella catarrhalis by dilution susceptibility test; assay type: functional
[22] = system: Staphylococcus aureus; assay: Antibacterial activity against methicillin-susceptible Staphylococcus aureus Smith infected in C3H mouse assessed as eradication at 3.12 mg/kg/day, iv administered within 15 mins of infection assessed per gram of kidney measured after 48 hrs by organ burden assay relative to control; assay type: functional
[23] = system: Staphylococcus aureus; assay: as §2, with “5” for “10”; assay type: functional
[24] = system: Staphylococcus aureus; assay: Antibacterial activity against methicillin-susceptible Staphylococcus aureus Smith infected in C3H mouse assessed as reduction in log number of CFU at 25 mg/kg/day, iv administered within 15 mins of infection measured after 48 hrs by organ burden assay relative to control; assay type: functional
[25] = system: Staphylococcus aureus; assay: Antibacterial activity against methicillin-susceptible Staphylococcus aureus Smith infected in C3H mouse assessed as reduction in log number of CFU at 3.12 mg/kg/day, po administered within 15 mins of infection measured after 48 hrs by organ burden assay relative to control; assay type: functional
[26] = system: Staphylococcus aureus; assay: Antibacterial activity against methicillin-resistant Staphylococcus aureus; assay type: functional, organism-based
[27] = system: Staphylococcus aureus; assay: Antibacterial activity against methicillin-susceptible Staphylococcus aureus Smith infected in C3H mouse assessed as eradication at 12.5 mg/kg/day, po administered within 15 mins of infection assessed per gram of kidney measured after 48 hrs by organ burden assay relative to control; assay type: functional
[28] = system: Staphylococcus aureus; assay: Antibacterial activity against methicillin-susceptible Staphylococcus aureus Smith infected in C3H mouse assessed as reduction in log number of CFU at 6.25 mg/kg/day, iv administered within 15 mins of infection measured after 48 hrs by organ burden assay relative to control; assay type: functional
[29] = Fraction unbound in Staphylococcus aureus-infected mouse localized thigh infection model plasma at 25 mg/kg; assay type: ADME, organism-based; design: dose 25 mg/kg; details: read-out: PPB
[30] = system: Staphylococcus aureus; assay: Antibacterial activity against methicillin-susceptible Staphylococcus aureus Smith infected in C3H mouse assessed as eradication at 6.25 mg/kg/day, iv administered within 15 mins of infection assessed per gram of kidney measured after 48 hrs by organ burden assay relative to control; assay type: functional
[31] = Bioavailability in Staphylococcus aureus-infected mouse localized thigh infection model at 25 mg/kg; assay type: ADME, organism-based; details: in vivo
[32] = system: Staphylococcus aureus; assay: Antibacterial activity against methicillin-susceptible Staphylococcus aureus Smith infected in C3H mouse assessed as eradication at 6.25 mg/kg/day, po administered within 15 mins of infection assessed per gram of kidney measured after 48 hrs by organ burden assay relative to control; assay type: functional
[33] = system: Staphylococcus aureus; assay: Antibacterial activity against 3.6 x 10^8 CFU methicillin-resistant Staphylococcus aureus COL by dilution susceptibility test; assay type: functional
[34] = system: Staphylococcus aureus; assay: Antibacterial activity against methicillin-susceptible Staphylococcus aureus Smith infected in C3H mouse assessed as eradication at 12.5 mg/kg/day, iv administered within 15 mins of infection assessed per gram of kidney measured after 48 hrs by organ burden assay relative to control; assay type: functional
[35] = system: Staphylococcus aureus; assay: Antibacterial activity against methicillin-susceptible Staphylococcus aureus Smith infected in C3H mouse assessed as eradication at 3.12 mg/kg/day, po administered within 15 mins of infection assessed per gram of kidney measured after 48 hrs by organ burden assay relative to control; assay type: functional
[36] = system: Staphylococcus aureus; assay: Antibacterial activity against linezolid-resistant methicillin-resistant Staphylococcus aureus infected in C3H mouse localized infection model assessed as log reduction in CFU per gram of thigh at 100 mg/kg measured after 48 hrs by organ burden assay relative to control; assay type: functional
[37] = system: Staphylococcus aureus; assay: Antibacterial activity against methicillin-susceptible Staphylococcus aureus Smith infected in C3H mouse assessed as renal sterilization at 25 mg/kg/day, po administered 15 mins postinfection; assay type: functional, organism-based

SMILES	ED99 [1] [mg/kg]	Activity [2]	log10cfu [4]	Activity [6]	Activity [7]	Activity [8] [%]	Activity [9]	log10cfu [10]	ED99 [11] [mg/kg]	MIC [12] [µg/mL]	Activity [13]	ED99 [15] [mg/kg]	ED99 [16] [mg/kg]	log10cfu [17]	ED99 [18] [mg/kg]	Activity [20] [%]	Activity [22] [%]	log10cfu [23]	Activity [24]	Activity [25]	other results
N#C[C@]1(c2ccc(-c3ccc(N4C[C@H](Cn5ccnn5)OC4=O)cc3F)cn2)[C@@H]2CNC[C@@H]21	10.2	0.06	3.7	2.93	4.46	0	5.23	1.5	5.6	1 (≈ 2.24 µM)	2.63	4.2	6.3	2.4	4.9	0	0	2	4.59	-0.26	Activity [3]: Active; MIC [5]: 0.125 µg/mL (≈ 0.281 µM); MIC90 [14]: 2 µg/mL (≈ 4.49 µM); Activity [19]: Active; MIC90 [21]: 0.5 µg/mL (≈ 1.12 µM); Activity [26]: Active; Activity [27]: 0%; Activity [28]: 2.03; fraction unbound [29]: 0.19; Activity [30]: 0%; bioavailability [31]: 30%; Activity [32]: 0%; MIC [33]: 0.125 µg/mL (≈ 0.281 µM); Activity [34]: 0%; Activity [35]: 0%
CC(=O)NC[C@H]1CN(c2ccc(N3CCOCC3)c(F)c2)C(=O)O1 [LINEZOLID]	85	-0.27	3.7	2.71	1.44	100	6.07	1.5	6.9	64 (≈ 190 µM)	1.44	5.2	12	2.4	7	0	0	2	4.27	-0.53	log10cfu [36]: 2.5; Activity [37]: Active; Activity [27]: 0%; Activity [28]: -0.12; fraction unbound [29]: 0.68; Activity [30]: 0%; Activity [32]: 0%; MIC [33]: 1 µg/mL (≈ 2.96 µM); Activity [34]: 0%; Activity [35]: 0%
